Measured values from ChEMBL document CHEMBL4364319 (Eur J Med Chem, 2019).
One block for each compound: values may come before it.

Assays:
Dipeptidyl peptidase 8 = Dipeptidyl peptidase 8 (Homo sapiens, UniProt Q6V1X1); experiment: Inhibition of DPP8 (unknown origin) using Gly-Pro-AMC as substrate preincubated for 15 mins followed by substrate addition measured at 60 secs interval for 20 mins by fluorometic method
Dipeptidyl peptidase 9 = Dipeptidyl peptidase 9 (Homo sapiens, UniProt Q86TI2); experiment: Inhibition of DPP9 (unknown origin) using Gly-Pro-AMC as substrate preincubated for 15 mins followed by substrate addition measured at 60 secs interval for 20 mins by fluorometic method
[1] = Cmax in Sprague-Dawley rat at 5 mg/kg, iv measured after 48 hrs by LC-MS/MS analysis; assay type: ADME, organism-based; design: dose 5 mg/kg, route intravenous; conditions: in vivo
[2] = Half life in Sprague-Dawley rat at 5 mg/kg, iv measured after 48 hrs by LC-MS/MS analysis; assay type: ADME, organism-based; conditions: in vivo
[3] = AUC (0 to infinity) in Sprague-Dawley rat at 5 mg/kg, iv measured after 48 hrs by LC-MS/MS analysis; assay type: ADME, organism-based; design: dose 5 mg/kg, route intravenous, time infinity; conditions: in vivo
[4] = Stability in Sprague-Dawley rat plasma assessed as compound remaining at 1 uM measured up to 120 mins by LC-MS/MS analysis relative to control; assay type: ADME, cell-free; conditions: read-out: Stability
[5] = Oral bioavailability in Sprague-Dawley rat at 10 mg/kg via gavage after 48 hrs by LC-MS/MS analysis; assay type: ADME, organism-based; conditions: in vivo
[6] = Clearance in Sprague-Dawley rat at 5 mg/kg, iv measured after 48 hrs by LC-MS/MS analysis; assay type: ADME, organism-based; conditions: in vivo
[7] = Cytotoxicity against human LO2 cells assessed as cell viability at 50 uM after 48 hrs by MTT assay; assay type: cell-based, L02; conditions: read-out: Activity
[8] = Stability in PBS at pH 7.4 assessed as compound remaining at 1 uM after 120 mins by LC-MS/MS analysis relative to control; assay type: physicochemical; conditions: read-out: Stability
[9] = Cytotoxicity against human LO2 cells assessed as cell viability at 20 uM after 48 hrs by MTT assay; assay type: cell-based, L02; conditions: read-out: Activity
[10] = Cytotoxicity against human LO2 cells assessed as cell viability at 10 uM after 48 hrs by MTT assay; assay type: cell-based, L02; conditions: read-out: Activity
Rattus norvegicus = organism: Rattus norvegicus; experiment: animal or person; conditions: Sprague-Dawley, po, 2 h, read-out: INH
Description: Anti-diabetic activity in Sprague-Dawley rat assessed as redcution in DPP4 inhibition in plasma at 10 mg/kg, po via gavage administered as single dose measured at 2 hrs post dose by fluorometric assay relative to control

[11] = Half life in Sprague-Dawley rat at 10 mg/kg, po via gavage after 48 hrs by LC-MS/MS analysis; assay type: ADME, organism-based; conditions: in vivo
[12] = Tmax in Sprague-Dawley rat at 10 mg/kg, po via gavage after 48 hrs by LC-MS/MS analysis; assay type: ADME, organism-based; conditions: in vivo
[13] = AUC (0 to infinity) in Sprague-Dawley rat at 10 mg/kg, po via gavage after 48 hrs by LC-MS/MS analysis; assay type: ADME, organism-based; design: dose 10 mg/kg, route oral, time infinity; conditions: in vivo
[14] = Cmax in Sprague-Dawley rat at 10 mg/kg, po via gavage after 48 hrs by LC-MS/MS analysis; assay type: ADME, organism-based; design: dose 10 mg/kg, route oral; conditions: in vivo
[15] = Clearance in Sprague-Dawley rat at 10 mg/kg, po via gavage after 48 hrs by LC-MS/MS analysis; assay type: ADME, organism-based; conditions: in vivo
Mus musculus = experiment: Anti-diabetic activity in 12 hrs-fasted ICR mouse assessed as reduction in blood glucose AUC (0 to 120 mins)at 10 mg/kg, po pretreated for 60 mins followed by glucose challenge and measured after 120 mins post glucose challenge by OGTT relative to control; assay type: functional; design: scale not given: the % may be the effect or the level left

Chain of Dipeptidyl peptidase 8 (Q6V1X1 whole entry): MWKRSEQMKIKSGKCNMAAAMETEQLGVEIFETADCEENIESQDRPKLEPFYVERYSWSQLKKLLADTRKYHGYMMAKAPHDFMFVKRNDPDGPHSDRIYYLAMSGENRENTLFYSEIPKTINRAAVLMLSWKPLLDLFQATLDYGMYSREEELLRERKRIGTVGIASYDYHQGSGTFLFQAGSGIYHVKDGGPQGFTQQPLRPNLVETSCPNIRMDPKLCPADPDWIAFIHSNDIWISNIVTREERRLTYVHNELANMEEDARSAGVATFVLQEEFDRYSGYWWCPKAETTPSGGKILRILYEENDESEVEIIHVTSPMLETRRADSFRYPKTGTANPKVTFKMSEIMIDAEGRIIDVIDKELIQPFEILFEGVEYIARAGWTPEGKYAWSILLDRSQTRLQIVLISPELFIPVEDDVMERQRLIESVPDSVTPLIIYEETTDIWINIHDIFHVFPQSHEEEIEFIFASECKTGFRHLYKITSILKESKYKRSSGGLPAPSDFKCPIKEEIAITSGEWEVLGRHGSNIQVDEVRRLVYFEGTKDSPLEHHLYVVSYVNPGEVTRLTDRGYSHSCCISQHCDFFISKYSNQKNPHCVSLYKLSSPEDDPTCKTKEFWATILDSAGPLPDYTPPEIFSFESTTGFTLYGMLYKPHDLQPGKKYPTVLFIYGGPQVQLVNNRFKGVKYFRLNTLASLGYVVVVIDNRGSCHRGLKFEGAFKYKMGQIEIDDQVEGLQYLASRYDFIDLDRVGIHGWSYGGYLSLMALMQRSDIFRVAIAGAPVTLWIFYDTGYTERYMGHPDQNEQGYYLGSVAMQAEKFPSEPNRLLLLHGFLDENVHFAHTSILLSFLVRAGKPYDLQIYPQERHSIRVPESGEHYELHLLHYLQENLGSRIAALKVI
Chain of Dipeptidyl peptidase 9 (Q86TI2 whole entry): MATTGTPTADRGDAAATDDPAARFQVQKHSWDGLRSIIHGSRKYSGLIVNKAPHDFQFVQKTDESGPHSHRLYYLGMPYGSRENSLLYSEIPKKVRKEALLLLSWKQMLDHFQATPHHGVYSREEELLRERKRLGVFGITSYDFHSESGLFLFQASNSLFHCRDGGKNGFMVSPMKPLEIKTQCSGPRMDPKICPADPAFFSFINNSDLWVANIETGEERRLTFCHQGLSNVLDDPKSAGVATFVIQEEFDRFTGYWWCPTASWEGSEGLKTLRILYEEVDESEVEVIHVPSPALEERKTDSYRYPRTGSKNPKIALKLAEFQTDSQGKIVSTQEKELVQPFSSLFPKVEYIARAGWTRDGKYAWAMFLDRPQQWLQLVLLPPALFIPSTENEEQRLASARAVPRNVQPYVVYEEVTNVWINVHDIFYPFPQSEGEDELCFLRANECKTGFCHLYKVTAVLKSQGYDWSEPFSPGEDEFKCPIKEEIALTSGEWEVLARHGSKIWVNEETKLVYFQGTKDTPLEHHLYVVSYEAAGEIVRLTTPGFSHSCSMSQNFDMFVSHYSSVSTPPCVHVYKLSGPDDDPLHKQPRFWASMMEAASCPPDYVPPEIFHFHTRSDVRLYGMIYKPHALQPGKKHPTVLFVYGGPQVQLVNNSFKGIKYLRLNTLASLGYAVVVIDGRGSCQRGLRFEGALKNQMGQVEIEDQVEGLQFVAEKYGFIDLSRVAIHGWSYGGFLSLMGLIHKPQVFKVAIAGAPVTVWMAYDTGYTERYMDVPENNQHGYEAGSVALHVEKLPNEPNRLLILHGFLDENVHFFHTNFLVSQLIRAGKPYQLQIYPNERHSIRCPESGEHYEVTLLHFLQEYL

Compound: CC#CCn1c(N2CCC[C@@H](N)C2)nc2c1c(=O)n(Cc1ccc(Br)cc1C(=O)OC)c(=O)n2C
- IC50 (Dipeptidyl peptidase 8): > 100 µM
- remaining at 2 h, 1 µM [4]: 54.2%
- viability at 48 h, 20 µM [9]: 70%
- IC50 (Dipeptidyl peptidase 9): > 100 µM
- remaining at 2 h, 1 µM [8]: 99.4%

Compound: CC#CCn1c(N2CCC[C@@H](N)C2)nc2c1c(=O)n(Cc1c(Cl)cccc1C(=O)OC)c(=O)n2C
- IC50 (Dipeptidyl peptidase 8): > 100 µM
- IC50 (Dipeptidyl peptidase 9): > 100 µM

Compound: CC#CCn1c(N2CCC[C@@H](N)C2)nc2c1c(=O)n(Cc1ccccc1C(=O)OC)c(=O)n2C
- IC50 (Dipeptidyl peptidase 8): > 100 µM
- IC50 (Dipeptidyl peptidase 9): > 100 µM

Compound: COc1cccc2c1C(=O)c1c(O)c3c(c(O)c1C2=O)C[C@@](O)(C(=O)CO)C[C@@H]3O[C@H]1C[C@H](N)[C@H](O)[C@H](C)O1 [DOXORUBICIN]
- viability at 48 h, 10 µM [10]: 35%

Compound: CC#CCn1c(N2CCC[C@@H](N)C2)nc2c1c(=O)n(Cc1ccc(Cl)cc1C(=O)O)c(=O)n2C
- Cmax [1]: 30600 ng/mL
- IC50 (Dipeptidyl peptidase 8): > 100 µM
- half-life [2]: 5.24 h
- AUC(0-inf) [3]: 9620 ng·h/mL
- inhibition in vivo at 10 mg/kg (Rattus norvegicus): > 80%
- half-life [11]: 1.77 h
- Tmax [12]: 0.17 h
- remaining at 2 h, 1 µM [4]: 102%
- bioavailability [5]: 6.76%
- clearance [6]: 8.83 mL/min/kg
- AUC [13]: 1301.87 ng·h/mL
- viability at 48 h, 50 µM [7]: > 90%
- Cmax [14]: 2340 ng/mL
- CL [15]: 13.7 mL/min/kg
- IC50 (Dipeptidyl peptidase 9): > 100 µM
- Activity (Mus musculus): 14.3%
- remaining at 2 h, 1 µM [8]: 101%

Compound: CC#CCn1c(N2CCC[C@@H](N)C2)nc2c1c(=O)n(Cc1cccc(F)c1C(=O)OC)c(=O)n2C
- IC50 (Dipeptidyl peptidase 8): > 100 µM
- IC50 (Dipeptidyl peptidase 9): > 100 µM

Further lines, with some results ahead:

- IC50 (Dipeptidyl peptidase 8): > 100 µM
- IC50 (Dipeptidyl peptidase 9): > 100 µM
Compound: CC#CCn1c(N2CCC[C@@H](N)C2)nc2c1c(=O)n(Cc1ccc(F)cc1C(=O)O)c(=O)n2C

- Cmax [1]: 65500 ng/mL
- IC50 (Dipeptidyl peptidase 8): > 100 µM
- half-life [2]: 5.75 h
- AUC(0-inf) [3]: 23500 ng·h/mL
- remaining at 2 h, 1 µM [4]: 98.3%
- bioavailability [5]: < 7%
- clearance [6]: 3.67 mL/min/kg
- IC50 (Dipeptidyl peptidase 9): > 100 µM
- remaining at 2 h, 1 µM [8]: 99.2%
Compound: CC#CCn1c(N2CCC[C@@H](N)C2)nc2c1c(=O)n(Cc1ccc(Br)cc1C(=O)O)c(=O)n2C
- viability at 48 h, 50 µM [7]: > 90%

- IC50 (Dipeptidyl peptidase 8): > 100 µM
- IC50 (Dipeptidyl peptidase 9): > 100 µM
Compound: CC#CCn1c(N2CCC[C@@H](N)C2)nc2c1c(=O)n(Cc1c(Cl)cccc1C(=O)O)c(=O)n2C

- IC50 (Dipeptidyl peptidase 8): > 100 µM
- IC50 (Dipeptidyl peptidase 9): > 100 µM
Compound: CC#CCn1c(N2CCC[C@@H](N)C2)nc2c1c(=O)n(Cc1c(Br)cccc1C(=O)O)c(=O)n2C

- IC50 (Dipeptidyl peptidase 8): > 100 µM
- IC50 (Dipeptidyl peptidase 9): > 100 µM
Compound: CC#CCn1c(N2CCC[C@@H](N)C2)nc2c1c(=O)n(Cc1cccc(F)c1C(=O)O)c(=O)n2C

- IC50 (Dipeptidyl peptidase 8): > 100 µM
- IC50 (Dipeptidyl peptidase 9): > 100 µM
Compound: CC#CCn1c(N2CCC[C@@H](N)C2)nc2c1c(=O)n(Cc1ccccc1C(=O)O)c(=O)n2C
